Results on 1 molecule are retold here after patent US20070155660A1, “Inhibition of voluntary ethanol consumption with selective melanocortin 4-receptor agonists” (priority 2003, published 2007).

Assay [1] concerns the target T1, hMC-3R (Homo sapiens, UniProt P41968).
T1 construct: expressed in transfected cells; host or cells: Chinese hamster ovary (CHO) cells
Kind of assay: Competitive binding assay, [125I]-NDP-α-MSH, CHO cell membranes. The following applies: read-out: Binding Assay IC50 hMC-3R. How it is done: The peptides of the present invention were evaluated for […] in receptor binding assay. Crude membrane preparations were obtained from Chinese hamster ovary cells expressing human MC3, MC4, and MC5 receptors. Cells were rinsed with phosphate-buffered saline (PBS) lacking CaCl2 or MgCl2 (Life Technologies, Gaithersburg, Md., USA), and then detached with enzyme-free dissociation media (Specialty Media, Lavellette, N.J., USA). Cells were pelleted at 2800×g for 10 minutes and resuspended in membrane buffer (20 mM Tris, pH 7.2, 5 mM ethylenediaminetetraacetic acid) with 5 μg/ml leupeptin, 5 μg/ml aprotinin, 40 μg/ml bacitracin, and 25 μg/m pefabloc (Boehringer Mannheim). […]
Binding reactions (total volume=[…]) contained MBB (50 mM Tris, pH 7.2, 2 mM CaCl2, 1 mM MgCl2), 0.1% bovine serum albumin, crude membranes prepared from cells expressing human MC3, MC4, or MC5 receptor, 200 pM of [125I]-NDP-α-MSH (Amersham, Arlington Heighs, Ill., USA), and increasing concentrations of unlabeled test compounds dissolved in dimethylsulfoxide (final concentration=2%). […] Filters were washed 3 times with TNE buffer (50 mM Tris, pH 7.4, 5 mM ethylenediaminetetraacetic acid, 150 mM NaCl), dried and counted by using Microscint-20 in a Topcount scintillation counter (Packard). Nonspecific binding was determined in the presence of 2 μm of unlabeled NDP-α-MSH (Peninsula Laboratories). […]

The target of assay [2] is T1, hMC-3R. The assay is described as follows: cAMP assay in CHO cells expressing a human melanocortin receptor. The class given is cell-based. How it is done: (§1) Chinese hamster ovary cells expressing a human melanocortin receptor were rinsed with calcium-and magnesium-free PBS (Life Technologies), and detached from the tissue culture flasks by 5-minutes incubation with enzyme-free dissociation buffer (S-014-B, Specialty Media). Cells were collected by centrifugation and resuspended in Earle's balanced salt solution (Life Technologies) with addition of 10 mM 4-(2-hydroxyethyl)-1-piperazineethanesulfonic acid (Hepes) buffer, pH 7.5, 5 mM MgCl2, 1 mM glutamine, and 1 mg/ml bovine serum albumin to concentration of 1-5×10^6 cells/ml. Subsequently, cells were counted and the cell suspension was treated with the phosphodiesterase inhibitor 3-isobutyl-1-methylxanthine (to concentration of 0.6 mM).
(§2) A test compound was dissolved in dimethyl sulfoxide (DMSO, 10^−3 to 10^−8 M), diluted with buffer and 0.1 volume of the solution was added to 0.9 volumes of the cell suspension (1 to 5×10^5 cells); final concentration of DMSO was 1%. After 45 minutes at room temperature, cells were lysed by incubation at 100° C. for 5 minutes to release accumulated cAMP. Accumulation of cAMP was measured in an aliquot of the cell lysate with the Amersham (Arlington Heights, Ill.) cAMP detection assay kit (RPA556). The amount of cAMP produced in response to a tested compound was compared to the amount of cAMP produced in response to α-MSH, defined as a 100% agonist. […]

A further assay concerns the target T2, hMC-1R (Homo sapiens, UniProt Q01726).
T2 construct: expressed in transfected cells; host or cells: Chinese hamster ovary (CHO) cells
The description is as above. The class given is cell-based. As for the experimental part:
as §1, §2

The target in assay [3] is T3, MC5R (Homo sapiens, UniProt P33032). The description is as above. Also noted: expressed in transfected cells; host or cells: Chinese hamster ovary (CHO) cells. The class given is cell-based. As for the experimental part:
as §1
(§3) A test compound was dissolved in dimethyl sulfoxide (DMSO, 10^−3 to 10^−8 M), diluted with buffer and 0.1 volume of the solution was added to 0.9 volumes of the cell suspension (1 to 5×10^5 cells); final concentration of DMSO was 1%. After 45 minutes at room temperature, cells were lysed by incubation at 100° C. for 5 minutes to release accumulated cAMP. Accumulation of cAMP was measured in an aliquot of the cell lysate with the Amersham (Arlington Heights, Ill.) cAMP detection assay kit (RPA556). The amount of cAMP produced in response to a tested compound was compared to the amount of cAMP produced in response to α-MSH, defined as a 100% agonist. All active peptides were characterized in three independent experiments.

The target of assay [4] is T4, MC4R (Homo sapiens, UniProt P32245). The description is as above. It counts as cell-based. Also noted: expressed in transfected cells; host or cells: Chinese hamster ovary (CHO) cells. As for the experimental part: as §1, §3
The target in assay [5] is T3, MC5R. The assay is described as follows: Competitive binding assay, [125I]-NDP-α-MSH, CHO cell membranes. Also noted: expressed in transfected cells; host or cells: Chinese hamster ovary (CHO) cells. The following applies: read-out: Binding Assay IC50 hMC-5R. How it is done: (§4) The peptides of the present invention were evaluated for […] in receptor binding assay. Crude membrane preparations were obtained from Chinese hamster ovary cells expressing human MC3, MC4, and MC5 receptors. Cells were rinsed with phosphate-buffered saline (PBS) lacking CaCl2 or MgCl2 (Life Technologies, Gaithersburg, Md., USA), and then detached with enzyme-free dissociation media (Specialty Media, Lavellette, N.J., USA). Cells were pelleted at 2800×g for 10 minutes and resuspended in membrane buffer (20 mM Tris, pH 7.2, 5 mM ethylenediaminetetraacetic acid) with 5 μg/ml leupeptin, 5 μg/ml aprotinin, 40 μg/ml bacitracin, and 25 μg/m pefabloc (Boehringer Mannheim). The cells were […] with 10 strokes by using a motor-driven Teflon-coated pestle in a glass homogenizer at low speed. The resulting cell suspension was centrifuged at 4100×g, 4° C., for 20 minutes. The pellet was resuspended in fresh membrane buffer with protease inhibitors, aliquoted, snap-frozen in liquid nitrogen, and stored at −80° C. The resulting crude membranes were titrated to determine the optimal level necessary for performing binding studies. Results
(§5) Binding reactions (total volume=[…]) contained MBB (50 mM Tris, pH 7.2, 2 mM CaCl2, 1 mM MgCl2), 0.1% bovine serum albumin, crude membranes prepared from cells expressing human MC3, MC4, or MC5 receptor, 200 pM of [125I]-NDP-α-MSH (Amersham, Arlington Heighs, Ill., USA), and increasing concentrations of unlabeled test compounds dissolved in dimethylsulfoxide (final concentration=2%). Reactions were incubated for 1 hour without shaking and then filtered through 96-well filter plates (Packard), presoaked in 1% polyethyleneimine. Filters were washed 3 times with TNE buffer (50 mM Tris, pH 7.4, 5 mM ethylenediaminetetraacetic acid, 150 mM NaCl), dried and counted by using Microscint-20 in a Topcount scintillation counter (Packard). Nonspecific binding was determined in the presence of 2 μm of unlabeled NDP-α-MSH (Peninsula Laboratories). Active peptides were evaluated in three independent experiments.

Assay [6] concerns the target T4, MC4R. The assay is described as above. Details: expressed in transfected cells; host or cells: Chinese hamster ovary (CHO) cells. How it is done: as §4, §5

The structures appear in SMILES notation. Bridge positions count the residues as written; N and C are the ends. Square brackets hold non-standard residues; d marks the D form. Peptide text beside a SMILES is read from it. βAla = NCCC(=O)O

The term IC50 denotes the midpoint of a concentration-inhibition curve. By EC50 is commonly meant the midpoint of the concentration-response curve. The low end stands for greater potency, the high end for weaker potency.

T4 sequence (P32245 whole entry): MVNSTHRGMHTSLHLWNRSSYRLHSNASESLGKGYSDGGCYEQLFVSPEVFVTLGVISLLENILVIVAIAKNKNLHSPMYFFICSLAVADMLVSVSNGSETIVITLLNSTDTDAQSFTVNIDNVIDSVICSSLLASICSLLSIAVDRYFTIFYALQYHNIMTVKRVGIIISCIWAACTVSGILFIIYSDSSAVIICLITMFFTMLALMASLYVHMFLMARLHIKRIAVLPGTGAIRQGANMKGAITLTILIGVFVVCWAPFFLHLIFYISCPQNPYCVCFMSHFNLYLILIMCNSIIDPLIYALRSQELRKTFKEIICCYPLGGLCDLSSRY
T1 sequence (P41968 whole entry): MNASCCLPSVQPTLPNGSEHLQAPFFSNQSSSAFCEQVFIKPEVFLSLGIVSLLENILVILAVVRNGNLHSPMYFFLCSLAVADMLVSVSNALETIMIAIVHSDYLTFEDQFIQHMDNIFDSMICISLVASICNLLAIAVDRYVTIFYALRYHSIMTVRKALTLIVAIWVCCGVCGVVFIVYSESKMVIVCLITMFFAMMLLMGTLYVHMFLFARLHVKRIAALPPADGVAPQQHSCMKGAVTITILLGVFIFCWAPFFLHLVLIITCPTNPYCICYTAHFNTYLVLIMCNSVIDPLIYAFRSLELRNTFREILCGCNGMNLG
T3 sequence (P33032 whole entry): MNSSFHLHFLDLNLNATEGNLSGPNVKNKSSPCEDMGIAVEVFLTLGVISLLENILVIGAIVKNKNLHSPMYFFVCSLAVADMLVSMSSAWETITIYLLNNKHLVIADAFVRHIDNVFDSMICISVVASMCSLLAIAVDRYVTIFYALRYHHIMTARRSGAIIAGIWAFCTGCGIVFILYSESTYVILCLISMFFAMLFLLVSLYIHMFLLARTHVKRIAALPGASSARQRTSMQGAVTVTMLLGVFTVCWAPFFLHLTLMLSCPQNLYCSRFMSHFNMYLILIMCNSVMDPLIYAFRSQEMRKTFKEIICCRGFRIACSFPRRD
T2 sequence (Q01726 whole entry): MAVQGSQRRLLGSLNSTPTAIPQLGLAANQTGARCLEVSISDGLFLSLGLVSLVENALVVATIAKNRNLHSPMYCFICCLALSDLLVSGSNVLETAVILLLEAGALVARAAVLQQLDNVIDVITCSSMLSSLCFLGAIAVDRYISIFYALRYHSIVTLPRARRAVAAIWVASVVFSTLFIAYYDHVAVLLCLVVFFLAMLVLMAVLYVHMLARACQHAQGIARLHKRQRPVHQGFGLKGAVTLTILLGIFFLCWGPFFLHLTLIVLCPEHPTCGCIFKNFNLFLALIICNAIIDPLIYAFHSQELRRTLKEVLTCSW

Turning to `N=C(N)NCCC[C@@H]1NC(=O)[C@@H](Cc2ccccc2)NC(=O)[C@H](Cc2c[nH]cn2)NC(=O)CCNC(=O)CC[C@@H](C(N)=O)NC(=O)[C@H](Cc2c[nH]c3ccccc23)NC1=O` [Example 8] ([βAla]H[dF]RWE-NH2; lactam N-6 (inferred)), the results for the concentration for half-maximal inhibition (IC50) at hMC-3R [1], on MC5R [5] and on MC4R [6] (read-out: Binding Assay IC50 hMC-4R) were 490 nM, 4600 nM and 4 nM, respectively. Besides, the EC50 at hMC-3R [2] was found to be 59 nM; at hMC-1R, 11 nM; at MC5R [3] it was 1900 nM; at MC4R [4], 0.53 nM. In addition, the “Selectivity cAMP EC50 1R/4R” value at MC4R [4] (ratio of EC50 hMC-1R / hMC-4R) is given as 20.75. The “Selectivity cAMP EC50 3R/4R” value on MC4R [4] (ratio of EC50 hMC-3R / hMC-4R) was 111. On MC4R [4] (ratio of EC50 hMC-5R / hMC-4R), the “Selectivity cAMP EC50 5R/4R” value is recorded as 3585. On MC4R [6] (ratio of IC50 hMC-3R / hMC-4R), the “Selectivity Binding IC50 3R/4R” value was 122.5. Also, the “Selectivity Binding IC50 5R/4R” value on MC4R [6] (ratio of IC50 hMC-5R / hMC-4R) was found to be 1150.
